Experiment [1] has as its system Candida albicans. Nature of the experiment: Antimicrobial activity against Candida albicans incubated for 72 hrs by standard broth dilution method. The experiment is classed as functional. (Broth dilution looks for growth in wells or tubes with falling amounts of substance.)
Experiment [2] concerns Aspergillus niger. The experiment can be described thus: Antimicrobial activity against Aspergillus niger incubated for 72 hrs by standard broth dilution method. It counts as functional.
For experiment [3], the system named is Botrytis cinerea. Nature of the experiment: Antimicrobial activity against Botrytis cinerea incubated for 72 hrs by standard broth dilution method. The experiment is classed as functional.
Experiment [4] has as its system Colletotrichum acutatum. The experiment can be described thus: Antimicrobial activity against Colletotrichum acutatum incubated for 72 hrs by standard broth dilution method. The experiment is classed as functional.
Experiment [5] concerns Rhizoctonia solani. Nature of the experiment: Antimicrobial activity against Rhizoctonia solani incubated for 72 hrs by standard broth dilution method. It counts as functional.
The next experiment relates to Saccharomyces cerevisiae. Nature of the experiment: Antimicrobial activity against Saccharomyces cerevisiae incubated for 72 hrs by standard broth dilution method. The experiment is classed as functional.
In experiment [6] the test system is Botrytis cinerea. Nature of the experiment: Antifungal activity against Botrytis cinerea. It counts as functional.
Experiment [7] has as its system Candida albicans. Nature of the experiment: Antifungal activity against Candida albicans. It counts as functional, organism-based.
Experiment [8] deals with Colletotrichum acutatum. Nature of the experiment: Antifungal activity against Colletotrichum acutatum. The experiment is classed as functional.
The test system of experiment [9] is Rhizoctonia solani. Nature of the experiment: Antifungal activity against Rhizoctonia solani. The experiment is classed as functional.
The test system of experiment [10] is Aspergillus niger. Nature of the experiment: Antifungal activity against Aspergillus niger. The experiment is classed as functional.
In the next experiment the test system is Gaeumannomyces graminis. The experiment can be described thus: Antimicrobial activity against Gaeumannomyces graminis. It counts as functional.
Experiment [11] relates to Candida albicans. Nature of the experiment: Antifungal activity against wild type Candida albicans. It counts as functional, organism-based.
The subject of experiment [12] is Candida albicans. Nature of the experiment: Antifungal activity against amphotericin-B-resistant Candida albicans. It counts as functional, organism-based.
Experiment [13] relates to Candida albicans. Nature of the experiment: Antifungal activity against Candida albicans assessed as fungal growth inhibition. It counts as functional.
The test system of experiment [14] is Candida albicans. Nature of the experiment: Antifungal activity against Candida albicans ATCC 24433. It counts as functional.
The subject of experiment [15] is Rhizoctonia solani. Nature of the experiment: Antifungal activity against Rhizoctonia solani incubated for 48 hrs by standard broth dilution method. It counts as functional.
Experiment [16] has as its system Colletotrichum acutatum. The experiment can be described thus: Antifungal activity against Colletotrichum acutatum incubated for 48 hrs by standard broth dilution method. The experiment is classed as functional.
Another experiment relates to Phytophthora capsici. The experiment can be described thus: Antifungal activity against Phytophthora capsici incubated for 48 hrs by standard broth dilution method. The experiment is classed as functional.
Experiment [17] relates to Botrytis cinerea. Nature of the experiment: Antifungal activity against Botrytis cinerea incubated for 48 hrs by standard broth dilution method. It counts as functional.
Experiment [18] in a line: Inhibition of Candida albicans CaCdr1p transporter assessed as reduction in rhodamine 6G efflux.
A short description of experiment [19]: Inhibition of Candida albicans CaCdr1p transporter ATPase activity.
The next experiment has as its system Aspergillus fumigatus. Nature of the experiment: Antimicrobial activity against Aspergillus fumigatus. It counts as functional.
Experiment [20] concerns Candida albicans. The experiment can be described thus: Antimicrobial activity against Candida albicans assessed as reduction of microbial microbial growth. It counts as functional.

Converted amounts (≈) assume the structure as drawn. Where a SMILES comes first, the peptide text is derived from it. [ ]: non-standard residue; d: D form. The star is where a group is joined. Tridecanoyl(3R-OH,11-Me) = CCC(C)CCCCCCC[C@@H](O)CC(=O)*; X2 = CCC(C)CC(C)CCCC[C@@H](O)CC(=O)*; X3 = CCC(C)CCCCCCCC[C@@H](O)CC(=O)*

One may read the MIC as the lowest concentration that inhibits growth of the organism. For orientation: IC50 means the concentration that inhibits the measured activity by half.

As for `C[C@@H]1CCC/C=C/CCC(=O)C[C@@H](O)C/C=C\C=C\[C@@H](O)C/C=C/C=C\C(=O)O1` [MACROLACTIN F], the MIC in the experiment with Candida albicans [1], against Aspergillus niger [2], against Botrytis cinerea [3], in the experiment on Colletotrichum acutatum [4], in the experiment with Rhizoctonia solani [5] and against Saccharomyces cerevisiae was 0.02 µg/mL (≈ 0.0497 µM) each time.

In the case of `CO[C@H]1/C=C/C=C/CCC[C@@H](C)OC(=O)/C=C\C=C\C[C@H](O[C@@H]2O[C@@H](CO)[C@@H](O)[C@H](O)[C@H]2O)/C=C/C=C\C[C@H](O)C1`, the MIC in the experiment with Candida albicans [1], in the experiment with Aspergillus niger [2], against Botrytis cinerea [3], in the experiment on Colletotrichum acutatum [4], in the experiment on Rhizoctonia solani [5] and against Saccharomyces cerevisiae was 0.02 µg/mL (≈ 0.0346 µM) each time.

For `CCCCCCCCCCCCCCC(=O)OCC(O)CO[C@@H]1O[C@H](CO[C@@H]2C[C@H](CO)[C@@H](O)[C@H](O)[C@H]2O)[C@@H](O)[C@H](O)[C@H]1O` (stereo not given in full), the MIC in the experiment with Botrytis cinerea [6], against Candida albicans [7], against Colletotrichum acutatum [8], in the experiment with Rhizoctonia solani [9] and in the experiment with Aspergillus niger [10] was 0.02 µg/mL (≈ 0.0313 µM) each time.

For the molecule `CS[C@@]12CC3=CC=C[C@H](O)[C@H]3N1C(=O)[C@@H]1C[C@@H]3C(=O)CC[C@@H](O)[C@@H]3N1C2=O`, in the experiment on Gaeumannomyces graminis, the MIC amounted to 0.25 µg/mL (≈ 0.64 µM).

As for `CC(/C=C/c1ccccc1)=C\[C@H](O)[C@@H]1CC(=O)N[C@@H](CO)C(=O)NC2Cn3cc([n+]([C@@H]4O[C@H](CO)[C@H](O)[C@H](O)[C@H]4O)c3)CC(NC(=O)CCC[C@@H](C(=O)[O-])NC(=O)[C@@H](O)CNC(=O)[C@H](Cc3ccc(Br)cc3)NC(=O)[C@H]([C@@H](O)C(N)=O)NC(=O)[C@H](CC(N)=O)NC2=O)C(=O)N[C@@H]([C@H](C)O)C(=O)N[C@@H](CO)C(=O)N[C@@H](Cc2ccccc2)C(=O)N1` (stereo not given in full), the IC50 in the experiment with Candida albicans [11] came out at 7.84 µg/mL (≈ 4.52 µM); in the experiment with Candida albicans [12] it was 3.49 µg/mL (≈ 2.01 µM).

Regarding `C[C@@H]1CCC/C=C/C=C/[C@H](O)C[C@@H](O)C/C=C\C=C\[C@@H](OC(=O)CCC(=O)O[C@H]2O[C@@H](CO)[C@H](O)[C@@H](O)[C@@H]2O)C/C=C/C=C\C(=O)O1`, the minimal inhibitory concentration (MIC) against Candida albicans [1], against Aspergillus niger [2], in the experiment with Botrytis cinerea [3], against Colletotrichum acutatum [4], in the experiment on Rhizoctonia solani [5] and against Saccharomyces cerevisiae was 0.02 µg/mL (≈ 0.0301 µM) each time.

In the case of `CCCC[C@H](CC)c1nc2ccccc2c(=O)[nH]1`, in the experiment on Candida albicans [13], the MIC was 0.62 µg/mL (≈ 2.54 µM).

With `CO[C@H](c1ccc(O)cc1)[C@@H](NC(=O)[C@H](CCC(N)=O)NC(=O)[C@H](CC(C)C)NC(=O)[C@@H](CCCNC(=N)N)NC(=O)[C@H](NC(=O)[C@H](NC(=O)[C@@H](NC(=O)[C@H](O)[C@H](O)[C@H](CCCNC(=N)N)NC(=O)[C@@H](C)NC(=O)[C@H](C)[C@H](O)[C@H](C)CC(C)C)[C@@H](C)CC(N)=O)[C@@H](C)O)[C@@H](C)O)C(=O)N(C)[C@@H](C)C(=O)O`, the MIC against Candida albicans [14] stood at 0.15 µg/mL (≈ 0.1 µM).

With `CCC(C)CCCCCCCC[C@@H](O)CC(=O)N[C@@H](CCC(=O)OC)C(=O)N[C@@H](CC(C)C)C(=O)N[C@@H](CC(C)C)C(=O)N[C@@H](CC(C)C)C(=O)O` (stereo not given in full) (X3-E(OMe)LLL-OH), the MIC with Rhizoctonia solani [15], against Colletotrichum acutatum [16], against Phytophthora capsici and against Botrytis cinerea [17] was 0.01 µg/mL (≈ 0.0135 µM) each time.

With `CCC[C@@H]1CC(=O)N[C@@H](CC(C)C)C(=O)N[C@H](Cc2ccccc2)C(=O)N[C@@H](CC(C)C)C(=O)N[C@@H](Cc2ccccc2)C(=O)O1`, the results for the IC50 in experiment [18] and in experiment [19] were 2.29 µg/mL (≈ 3.61 µM) and 0.31 µg/mL (≈ 0.488 µM), respectively.

On to `COc1ccc(/C=C/CCCC[C@H](C)[C@H](O)[C@@H](O)[C@H]2NC(=O)C[C@@H](O)CNC(=O)CNC(=O)[C@@H](Cc3c(C(=O)O)[nH]c4ccccc34)NC(=O)CN(C)C(=O)C[C@H]3NC(=O)C[C@H]3NC(=O)[C@H]2O)cc1`, for which the MIC with Aspergillus fumigatus stood at 0.6 µg/mL (≈ 0.623 µM).

For the molecule `CC1=CCC[C@H](C)[C@@]1(C)CC/C(C)=C/CC/C(C)=C/CS(=O)(=O)CCNC(=N)N`, the MIC in the experiment with Candida albicans [20] was found to be 0.5 µg/mL.

For the molecule `C[C@@H]1CCCCC/C=C/[C@H](O)C[C@@H](O)C/C=C\C=C\[C@@H](O[C@@H]2O[C@@H](CO)[C@H](O)[C@@H](O)[C@@H]2O)C/C=C/C=C\C(=O)O1`, the MIC against Candida albicans [1], against Aspergillus niger [2], against Botrytis cinerea [3], in the experiment on Colletotrichum acutatum [4], against Rhizoctonia solani [5] and in the experiment with Saccharomyces cerevisiae was 0.02 µg/mL (≈ 0.0353 µM) each time.

On to `CCCCC[C@@H]1CC(=O)N[C@@H](CC(C)C)C(=O)N[C@H](Cc2ccccc2)C(=O)N[C@@H](CC(C)C)C(=O)N[C@@H](Cc2ccccc2)C(=O)O1`, for which the IC50 in experiment [18] came out at 3.74 µg/mL (≈ 5.64 µM); in experiment [19] it was 0.46 µg/mL (≈ 0.694 µM).

On to `CCC(C)CC(C)CCCC[C@@H](O)CC(=O)N[C@@H](CC(C)C)C(=O)N[C@@H](CCC(=O)O)C(=O)N[C@@H](CC(C)C)C(=O)N[C@@H](CC(C)C)C(=O)O` (stereo not given in full) (X2-LELL-OH), for which the MIC in the experiment on Rhizoctonia solani [15], with Colletotrichum acutatum [16], in the experiment on Phytophthora capsici and with Botrytis cinerea [17] was 0.01 µg/mL (≈ 0.014 µM) throughout.

Regarding `CCC(C)CCCCCCC[C@@H](O)CC(=O)N[C@@H](CCC(=O)O)C(=O)N[C@@H](CC(C)C)C(=O)N[C@@H](CC(C)C)C(=O)N[C@@H](C(=O)N[C@@H](CC(=O)O)C(=O)N[C@@H](CC(C)C)C(=O)N[C@@H](CC(C)C)C(=O)O)C(C)C` (stereo partly drawn) ({Tridecanoyl(3R-OH,11-Me)}-ELL[dV]DLL-OH), the MIC in the experiment with Botrytis cinerea [6] and in the experiment on Rhizoctonia solani [9] was 4 µg/mL (≈ 3.84 µM) each time.

The values are drawn from ChEMBL document CHEMBL5260795, “Antifungal potential of marine natural products” (Eur J Med Chem, 2017).
